Data taken from article PMC3292407 (The Journal of Neuroscience, 2012).
Like-named read-outs stand apart in the source and are kept apart here.

Key:
[1] = Plasma EtOH concentrations; format: in vivo, rat
[2] = test system: rats; assay: Elevated-plus maze; format: in vivo, rat
[3] = test system: rats; assay: Pentylenetetrazol; format: in vivo, rat; conditions: PTZ 42 mg/kg
[4] = test system: rats; format: in vivo, rat
[5] = Plasma [EtOH] assay of two-bottle choice; format: in vivo, rat; conditions: E+D/water-group vs E/water-group, end of the 6th week
[6] = test system: GABAARs; format: cell-based, rat; conditions: for Itonic (pA) / mIPSC amplitude (pA) / mIPSC area (fC) / Decay time / Frequency (HZ) / Rise time: DGCs of naive rats; for Decay time / Frequency (HZ) / Rise time: mIPSCs
[7] = test system: GABAARs; format: cell-based, rat
[8] = test system: GABAAR α4 subunit; assay: Western blot of total GABAAR α4 subunit in hippocampus 48 hr after withdrawal; format: in vivo, rat
[9] = test system: GABAAR α4 subunit; format: cell-based, rat; conditions: cultured neurons 24 hrs after EtOH 60 mM + DHM 0.1 μM (E+D)
[10] = test system: GABAARs; format: in vivo, rat; conditions: for Decay time / Frequency (HZ) / Rise time: baseline mIPSCs; for Itonic (pA) / mIPSC amplitude (pA) / mIPSC area (fC): baseline
[11] = test system: rats; assay: Loss of Righting Reflex
[12] = 48 hr after DHM 1 mg/kg i.p. alone (D/W)
[13] = 48 hr withdrawal after EtOH 3 g/kg + DHM 1 mg/kg i.p. (E+D/W)
[14] = DHM 3 μM in presence of EtOH 60 mM
[15] = DHM 1 μM, cultured hippocampal neurons DIV13-14
[16] = D/W: 48 hr after DHM 1 mg/kg gavage
[17] = E+D/W: 48 hr after EtOH 5 g/kg + DHM 1 mg/kg gavage
[18] = DHM 0.3, 0.5, 1, 10 mg/kg co-injected i.p. with EtOH 3 g/kg

For O=C1c2c(O)cc(O)cc2O[C@H](c2cc(O)c(O)c(O)c2)[C@H]1O [DHM, (2R,3R)-3,5,7-trihydroxy-2-(3,4,5-trihydroxyphenyl)-2,3-dihydrochromen-4-one], the “Effect on plasma [EtOH]” value ([1]; DHM 10 mg/kg with EtOH 3 g/kg, significant at 30 min, not at 60 min) was “slightly decreased [EtOH]”, the “Rise time of plasma [EtOH]” value ([1]; DHM 1, 10 mg/kg with EtOH 3 g/kg) was “the rise time of plasma [EtOH] was slowed at early time” and the “Time in open and closed arms (EPM)” value [2, 12] was “did not affect the time rats spent in either arm”. For the same compound, the “Time in open and closed arms (EPM)” value ([2]; 48 hr withdrawal after EtOH 3 g/kg + DHM 1 mg/kg i.p. (E+D/W), vs V/W-group) was “spent similar times”, the PTZ-induced seizure duration [3, 12] was 0.6 ± 0.4 min and the PTZ-induced seizure duration [3, 13] was 1.7 ± 0.8 min. For the same compound, the “Preference to bottle containing E+D” value ([4]; E+D/water-group, 3rd vs 7th week) was “did not change this preference”, the EtOH intake ([4]; EtOH+DHM 0.05 mg/ml/water (E+D/water-group), beginning of the 4th week) was 2.6 ± 0.5 g/kg/day and the Total fluid consumption ([4]; between the 4 groups (E/water, E+D/water, D/water, water/water)) was “no significant differences in total fluid consumption”. For the same compound, the Body weight ([4]; between the 4 groups at the end of the experiments) was “no significant difference in body weight”, the “Plasma [EtOH]” value [5] was “significantly lower” and the “Itonic (pA)” value ([6]; DHM 0.1 μM) was 27.6 ± 1.4 pA. The “mIPSC amplitude (pA)” value ([6]; DHM 0.1 μM) was 30.9 ± 2.9 pA, the “mIPSC area (fC)” value ([6]; DHM 0.1 μM) was 637.1 ± 19.8 fC and the “Decay time” value ([6]; DHM 0.1 μM) was 7.5 ± 0.5 ms. The “Frequency (HZ)” value ([6]; DHM 0.1 μM) was 14.0 ± 0.6 HZ, the “Rise time” value ([6]; DHM 0.1 μM) was 2.0 ± 0.2 ms and the “Itonic (pA)” value ([6]; DHM 1 μM) was 44.0 ± 4.1 pA. The “mIPSC amplitude (pA)” value ([6]; DHM 1 μM) was 32.7 ± 2.6 pA, the “mIPSC area (fC)” value ([6]; DHM 1 μM) was 715.7 ± 26.2 fC and the “Decay time” value ([6]; DHM 1 μM) was 8.6 ± 0.5 ms. For the same compound, the “Frequency (HZ)” value ([6]; DHM 1 μM) was 15.0 ± 0.6 HZ, the “Rise time” value ([6]; DHM 1 μM) was 2.1 ± 0.2 ms and the “EtOH-potentiated Itonic” value [6, 14] was 21.0 ± 0.9 pA. For the same compound, the “EtOH-potentiated mIPSCs (area)” value [6, 14] was 0.70 ± 0.02 nC, the “Itonic (pA)” value ([6]; DHM 10 μM) was 53.8 ± 2.9 pA and the “mIPSC amplitude (pA)” value ([6]; DHM 10 μM) was 36.1 ± 2.4 pA. The “mIPSC area (fC)” value ([6]; DHM 10 μM) was 965.7 ± 30.9 fC, the “Decay time” value ([6]; DHM 10 μM) was 9.6 ± 0.8 ms and the “Frequency (HZ)” value ([6]; DHM 10 μM) was 15.9 ± 1.0 HZ. The “Rise time” value ([6]; DHM 10 μM) was 2.4 ± 0.3 ms, the “Itonic (pA)” value ([6]; DHM 30 μM) was 54.0 ± 3.4 pA and the “mIPSC amplitude (pA)” value ([6]; DHM 30 μM) was 35.8 ± 3.0 pA. For the same compound, the “mIPSC area (fC)” value ([6]; DHM 30 μM) was 956.7 ± 22.6 fC, the “Decay time” value ([6]; DHM 30 μM) was 10.1 ± 0.8 ms and the “Frequency (HZ)” value ([6]; DHM 30 μM) was 16.1 ± 1.7 HZ. For the same compound, the “Rise time” value ([6]; DHM 30 μM) was 2.4 ± 0.2 ms, the “Effect on EtOH (60 mM) potentiation of Itonic and mIPSCs” value ([6]; DHM 0.3 and 1.0 μM) was “concentration-dependently antagonized” and the Itonic potentiation [7, 15] was 194.9 ± 13.6 % of baseline. The mIPSC area potentiation [7, 15] was 181.8 ± 9.2 % of baseline, the “Effect on GABA concentration-response curve of GABAAR-currents” value ([7]; DHM 0.3 and 1 μM co-applied with GABA, TTX present, DIV14) was “produced a left shift of the GABA concentration-response curve” and the “Effect on total α4 subunit level” value ([8]; hippocampus 48 hr after DHM 1 mg/kg i.p. alone (D/W)) was “had no effect on α4 subunit level”. The “Total α4 protein level” value ([8]; hippocampus 48 hr after EtOH 3 g/kg + DHM 1 mg/kg i.p. (E+D/W)) was 93.0 ± 21.0 % of control, the “Effect on EtOH-induced increase in surface GABAAR α4” value [9] was “prevented this increase” and the “Decay time” value [10, 16] was 7.9 ± 1.2 ms. The “Frequency (HZ)” value [10, 16] was 13.2 ± 1.3 HZ, the “Rise time” value [10, 16] was 2.2 ± 0.3 ms and the “Decay time” value [10, 17] was 7.1 ± 0.6 ms. The “Frequency (HZ)” value [10, 17] was 12.4 ± 0.5 HZ, the “Rise time” value [10, 17] was 1.8 ± 0.3 ms and the “Itonic (pA)” value [10, 16] was 24.3 ± 2.9 pA. The “mIPSC amplitude (pA)” value [10, 16] was 28.5 ± 3.0 pA, the “mIPSC area (fC)” value [10, 16] was 621.5 ± 68.5 fC and the “Itonic (pA)” value [10, 17] was 30.0 ± 2.8 pA. For the same compound, the “mIPSC amplitude (pA)” value [10, 17] was 26.2 ± 2.1 pA, the “mIPSC area (fC)” value [10, 17] was 666.8 ± 34.1 fC and the “mIPSC modulation by acute EtOH” value ([10]; bath EtOH 60 mM, DGCs of E+D/W-group rats) was “mIPSC modulation was unchanged”. The “Acute EtOH-induced LORR (tolerance)” value ([11]; 48 hr withdrawal after DHM 1 mg/kg i.p. alone (D/W)) was 65.6 ± 8.4 min, the “Acute EtOH-induced LORR (tolerance)” value [11, 13] was 61.0 ± 3.8 min and the LORR duration ([11]; DHM 1 mg/kg 30 min prior to EtOH injection (D1+E)) was 8.2 ± 4.1 min. For the same compound, the “LORR duration” value ([11]; DHM 1 mg/kg co-injected i.p. with EtOH 4 g/kg (E4+D1)) was 28.2 ± 4.0 min, the LORR induction ([11]; DHM 1 mg/kg i.p. alone (D1)) was “did not induce LORR” and the LORR duration ([11]; DHM 3 mg/kg co-injected with EtOH 3 g/kg (E3+D3)) was 2.7 ± 1.7 min. The “LORR duration” value ([11]; DHM 100 mg/kg i.p. alone (D100)) was 2.9 ± 1.3 min, the “Effect on duration of EtOH-induced LORR” value [11, 18] was “dose-dependently reduced LORR” and the “Effect on onset of EtOH-induced LORR” value [11, 18] was “dose-dependently increased LORR onset”. The “LORR duration” value ([11]; DHM 300 mg/kg i.p. alone (D300)) was 9.8 ± 4.3 min and the “Remaining LORR after the 30 min time point” value ([11]; DHM injected 30 min after EtOH) was 19 ± 1.0 min.
